This note sets out measurements from patent publication US6358967B1, “Ergoline amine derivatives with blood pressure lowering effect” (priority 1998, dated 2002).

Series [1] has as its system normotensive Wistar rats after pretreatment with Ecolid. Kind of series: Blood pressure testing after blockade of autonomic nerve tracts with Ecolid. The class given is in vivo, rat. The note with it: Table 2. An excerpt: Ecolid is a ganglionic blocker which competitively blocks the postsynaptic cholinergic (nicotinergic) receptors in the autonomic ganglia. This interrupts neurotransmission in the ganglia in both the para-sympathetic and sympathetic regions of the autonomic nervous system. The consequence thereof is, inter alia, a fall in blood pressure. It is possible in this way to differentiate central and peripheral (i.e. direct points of action on the smooth muscles) effects.
The experimental animals used were male Wistar rats with a BW of 300-450 g. The rats are anesthetized immediately before the experiment with 70 mg/kg inactin i.v. PE tubes are tied into the carotid artery and femoral vein.
(§1) To maintain the blood pressure and to prevent formation of thrombi in the PE tubes of the blood vessels, each hour 2.5 ml of heparinized 0.9% strength NaCl solution are infused through the femoral vein and 1.2 ml through the carotid artery.
Before testing the ergoline derivatives, the experimental animals were treated with Ecolid (dose: 0.5 mg/kg, i.v.).
(§2) The ergoline derivatives are administered i.v. through the femoral vein as 5 percent EtOH/NaCl (0.9%) solution, 1 ml/kg in a dosage of 0.5 mg/kg test substance.
The time stated in the table corresponds to the period between administration of Ecolid and injection of the test substances.

For the next series, the system named is normotensive Wistar rats. In words: Invasive blood pressure measurement in anesthetized rats, i.v. administration. The class given is in vivo, rat. Conditions: 0.5 mg/kg i.v., Table 1.1. On the procedure:
Male Wistar rats with a body weight (BW) of 300-450 g were used as experimental animals. The rats are anesthetized immediately before the experiment with 50 mg/kg pentobarbital Na intraperitoneally (i.p.) or 70 mg/kg inactin i.v. PE tubes are tied into the carotid artery and femoral vein.
as §1
The arterial blood pressure is measured invasively using a PONEMAH hemodynamic analyzer (HSE, March, Germany). Via the tube in the carotid artery, the arterial blood pressure is mechanoelectrically converted in a Statham transducer (ISOTEC), amplified in a Plugsys (DBA module, type 660), digitized in an A/D converter and input into the PC memory over defined time intervals. The values in the memory are then treated with an adapted algorithm in order to establish the blood pressure parameters to be calculated for heart rate, systolic, diastolic and mean blood pressure.
as §2

Where [2] appears, read: effect (fall) on arterial blood pressure, Wistar rats pretreated with Ecolid 0.5 mg/kg i.v., test substance 0.5 mg/kg i.v.
Where [3] appears, read: effect (fall) on arterial blood pressure, anesthetized Wistar rats.

Turning to `CN1CC(CNC(=O)c2ccc(C(=O)NCc3cccc(CN)c3)cc2)CC2c3cccc4[nH]cc(c34)CC21.O=C(O)C(F)(F)F.O=C(O)C(F)(F)F` (centres unmarked) [Substance 9703126], the “Effect pressure/duration: duration” value in series [1] (assessment class of duration, after Ecolid, 0.5 mg/kg i.v.) is given as “↓↓↓/↓↓↓ (> 30 min)”; in the series with normotensive Wistar rats (assessment class of duration) it was “↓↓↓/↓↓↓ (>30 min)”. Besides, the “Effect pressure/duration: pressure” value is recorded as “↓↓↓/↓↓↓ (> 30%)” in series [1] (assessment class of pressure fall, after Ecolid, 0.5 mg/kg i.v.) and “↓↓↓/↓↓↓ (>30%)” in the series on normotensive Wistar rats (assessment class of pressure fall). Also, the Heart rate result in series [1] (change shown as arrow, rats pretreated with Ecolid, 0.5 mg/kg i.v.) is on record as “→”; in the series on normotensive Wistar rats (change shown as arrow, Wistar rats) it was “→”. Further, the Diastol. pressure in series [1] (setting [2]) worked out at 48.7%; in the series on normotensive Wistar rats (setting [3]) it was 63.0%. For the same compound, the figures for the Mean pressure (in series [1] (setting [2]); in the series with normotensive Wistar rats (setting [3])) were 43.7% and 60.0%, respectively. For the same compound, the figures for the “Systol. pressure” value (in series [1] (setting [2]); with normotensive Wistar rats (setting [3])) were 36.4% and 55.0%, respectively. The Duration was greater than 120 min in series [1] (rats pretreated with Ecolid, 0.5 mg/kg i.v.) and greater than 60 min in the series with normotensive Wistar rats (duration of blood pressure effect, Wistar rats).
